In PMC8389907 (Journal of Medicinal Chemistry, 2021):
Like-named read-outs stand apart in the source and are kept apart here.

How the values were obtained:
DU145 cells [1] = experiment: MTT cell viability assay, DU145; type: cell-based; settings: Homo sapiens, DU-145
Procedure: (§1) The cell lines DU145 (HTB-81, human prostate carcinoma), PC3 (CRL-1435, human prostate adenocarcinoma), MCF7 (HTB-22, human breast adenocarcinoma), MDA-MB231 (HTB-26, human breast adenocarcinoma), and HCT116 (CCL-247, human colorectal carcinoma) were obtained from ATCC (American Type Culture Collection, Manassas, VA, USA); WH1 human fibroblasts were kindly provided by Dr. Guven.[51] All the cells were maintained under standard culture conditions (37 °C; 5% CO2) in the RMPI1640 medium (PC3, MCF7, and MDA-MB231 cells), while DU145 and HCT116 cells were in the DMEM and Iscove’s medium (WH1 cells) supplemented with 10% fetal calf serum, 1% glutamine, and 1% antibiotics mixture; for HCT116 and DU145 cells, 1% sodium pyruvate and 1% non-essential amino acids were also added to the culture medium.
(§2) The 3-(4,5-dimethylthiazol-2-yl)-2,5-diphenyltetrazolium bromide (MTT) assay was performed on all the cell lines tested as previously described[52] with minor modifications. Briefly, according to the growth profiles previously defined for each cell line, adequate numbers of cells were plated in each well of a 96-well plate in 0.1 mL of complete culture medium. Cells were allowed to attach for 24 h before the treatment at 37 °C for 72 h with the compounds at concentrations ranging between 0.1 and 75 μM, bringing the final volume to 0.2 mL/well. Each experiment included eight replications per concentration tested; control samples were run with 0.2% DMSO. At the end of the incubation period, MTT (0.05 mL of a 2 mg/mL stock solution in PBS) was added to each well for 3 h at 37 °C. Cell supernatants were then carefully removed, the blue formazan crystals formed through MTT reduction by metabolically active cells were dissolved in 0.120 mL of DMSO, and the corresponding optical densities were measured at 570 nm using a Universal Microplate Reader EL800 (Bio-Tek, Winooski, VT).
(§3) IC50 values were estimated from the resulting concentration–response curves by nonlinear regression analysis using GraphPad Prism software, v. 5.0 (GraphPad, San Diego, CA, USA). Differences between IC50 values were evaluated statistically by analysis of variance with a Bonferroni post-test for multiple comparisons.

HBL100 cells = experiment: MTT cell viability assay, non-tumorigenic HBL100; type: cell-based; settings: Homo sapiens, HBL-100, 72 h treatment
Procedure: as §2, §3

PC3 cells [2] = experiment: MTT cell viability assay, PC3; type: cell-based; settings: Homo sapiens, PC-3
Procedure: as §1, §2, §3

MCF7/ADR cells = experiment: MTT cell viability assay, DOX-resistant MCF7/ADR; type: cell-based, human; settings: for IC50: Homo sapiens, NCI/ADR-RES, 72 h treatment, MTT; for R.I. (resistance index): MCF7/ADR vs MCF7
Procedure: as §2, §3

MCF7 cells = experiment: MTT cell viability assay, MCF7; type: cell-based; settings: Homo sapiens, 72 h treatment, MTT, read-out: IC50 MCF7
Procedure: as §1, §2, §3

HCT116 cells = experiment: MTT cell viability assay, HCT116; type: cell-based; settings: Homo sapiens, HCT-116
Procedure: as §1, §2, §3

WH1 human fibroblasts = experiment: MTT cell viability assay, WH1 fibroblasts; type: cell-based; settings: Fibroblast, 72 h treatment
Procedure: as §1, §2, §3

MDA-MB231 cells = experiment: MTT cell viability assay, MDA-MB231; type: cell-based; settings: Homo sapiens, MDA-MB-231
Procedure: as §1, §2, §3

PC3 cells [3] = experiment: MTT assay with 1 h irradiation, PC3; type: cell-based, human; settings: 24 h treatment, 1 h white or blue light, 48 h drug-free medium
Procedure: (§4) To evaluate the contribution of NO release on cell viability, the MTT assay was performed on DU145 and PC3 cells following treatment with 7b and 7c with 1 h irradiation and 48 h incubation in a drug-free medium.
as §3

DU145 cells [4] = experiment: MTT assay with 1 h irradiation, DU145; type: cell-based, human; settings: 24 h treatment, 1 h white or blue light, 48 h drug-free medium
Procedure: as §4, §3

[5] = supplement csv, unit inferred, read-out: DU145 IC50
[6] = supplement csv, unit inferred, read-out: PC3 IC50
[7] = supplement csv, unit inferred, read-out: HCT116 IC50
[8] = supplement csv, unit inferred, read-out: MDA-MB231 IC50
[9] = 72 h treatment, MTT, read-out: IC50 DU145
[10] = 72 h treatment, MTT, read-out: IC50 MDA-MB231

Row | Compound | melting point | IC50 (DU145 cells [1]; [5]) | IC50 (HBL100 cells) | IC50 (PC3 cells [2]; [6]) | IC50 (MCF7/ADR cells) | R.I. (resistance index) (MCF7/ADR cells) | IC50 (MCF7 cells) | IC50 (HCT116 cells; [7]) | IC50 (WH1 human fibroblasts) | IC50 (MDA-MB231 cells; [8]) | IC50 (DU145 cells [1]; [9]) | IC50 (PC3 cells [2]; 72 h treatment, MTT, read-out: IC50 PC3) | IC50 (MDA-MB231 cells; [10]) | IC50, irradiated vs kept in the dark, PC3 (PC3 cells [3]) | IC50, irradiated vs kept in the dark, DU145 (DU145 cells [4]) | IC50 (HCT116 cells; 72 h treatment, MTT, read-out: IC50 HCT116)
1 | CCn1cc(C(=O)OC)c(=O)c2cc(F)c(N3CCN(CCNc4ccc([N+](=O)[O-])c(C(F)(F)F)c4)CC3)cc21 [Compound 6c, Methyl 1-Ethyl-6-fluoro-7-(4-(2-((4-nitro-3-(trifluoromethyl)phenyl)amino)ethyl)piperazin-1-yl)-4-oxo-1,4-dihydroquinoline-3-carboxylate] | 245 to 247 °C | 4.77 ± 0.99 µM | 10.8 ± 0.6 µM | 9.26 ± 1.29 µM | 17.2 ± 1 µM | 1.1 | 15.04 ± 0.1 µM | 12.4 ± 2.9 µM | 10.6 ± 1.9 µM | 11.9 ± 1 µM |  |  |  |  |  | 
2 | CCn1cc(C(=O)OC)c(=O)c2cc(F)c(N3CCN(CCCNc4ccc([N+](=O)[O-])c(C(F)(F)F)c4)CC3)cc21 [Compound 6d, Methyl 1-Ethyl-6-fluoro-7-(4-(3-((4-nitro-3-(trifluoromethyl)phenyl)amino)propyl)piperazin-1-yl)-4-oxo-1,4-dihydroquinoline-3-carboxylate] | 216 to 218 °C | 5.49 ± 0.97 µM | 3.68 ± 0.2 µM | 4.1 ± 0.61 µM | 28 ± 1.1 µM | 2.7 | 10.5 ± 1.2 µM | 11.7 ± 2.1 µM | 9.67 ± 1.65 µM | 8.89 ± 1.65 µM |  |  |  |  |  | 
3 | O=C(O)c1cn(C2CC2)c2cc(N3CCN(CCNc4ccc([N+](=O)[O-])c(C(F)(F)F)c4)CC3)c(F)cc2c1=O [Compound 7a, 1-Cyclopropyl-6-fluoro-7-(4-(2-((4-nitro-3-(trifluoromethyl)phenyl)amino)ethyl)piperazin-1-yl)-4-oxo-1,4-dihydroquinoline-3-carboxylic Acid] |  | 2.56 ± 0.21 µM | 9.14 ± 0.44 µM | 2.48 ± 0.42 µM | 14.7 ± 4.2 µM | 4.7 | 3.12 ± 0.62 µM | 5.29 ± 0.72 µM | 5.7 ± 0.92 µM | 2.24 ± 0.18 µM | < 3 µM | < 3 µM | < 2.5 µM |  |  | 
4 | O=C(O)c1cn(C2CC2)c2cc(N3CCN(CCCNc4ccc([N+](=O)[O-])c(C(F)(F)F)c4)CC3)c(F)cc2c1=O [Compound 7b, 1-Cyclopropyl-6-fluoro-7-(4-(3-((4-nitro-3-(trifluoromethyl)phenyl)amino)propyl)piperazin-1-yl)-4-oxo-1,4-dihydroquinoline-3-carboxylic Acid] |  | 2.42 ± 0.9 µM | 9.19 ± 0.66 µM | 3.02 ± 0.59 µM | 23.6 ± 3.6 µM | 4.5 | 5.23 ± 0.82 µM |  | 7.05 ± 1.2 µM | 2.51 ± 0.43 µM | < 3 µM |  | < 2.5 µM | no differences in IC50 values | no differences in IC50 values | 1.83 µM
5 | CCn1cc(C(=O)O)c(=O)c2cc(F)c(N3CCN(CCCNc4ccc([N+](=O)[O-])c(C(F)(F)F)c4)CC3)cc21 [Compound 7d, 1-Ethyl-6-fluoro-7-(4-(3-((4-nitro-3-(trifluoromethyl)phenyl)amino)propyl)piperazin-1-yl)-4-oxo-1,4-dihydroquinoline-3-carboxylic Acid] |  |  | 10.4 ± 0.9 µM | 4.83 ± 1.15 µM | 20 ± 0.3 µM | 3.4 | 5.83 ± 0.82 µM | 5.36 ± 0.65 µM | 8.94 ± 0.91 µM | 3.64 ± 0.63 µM | 1.56 µM |  |  |  |  | 
6 | COc1cccc2c1C(=O)c1c(O)c3c(c(O)c1C2=O)C[C@@](O)(C(=O)CO)C[C@@H]3O[C@H]1C[C@H](N)[C@H](O)[C@H](C)O1 [DOX, doxorubicin, reference compound] |  |  |  |  | 66.9 ± 2.56 µM |  |  |  |  |  |  |  |  |  |  | 
